According to patent US20110158954A1, “METHOD FOR PRODUCING GAMMA DELTA T CELL POPULATION” (priority 2007, published 2011):

Tests used:
Format in all cases: cell-based
γδ T cells [1] = assay: Expansion of γδ T cell population using pamidronate, CH-296 plate (Example 3); conditions: human PBMCs; IMDM; pamidronate 5 μM; immobilized CH-296; day 14
Procedure: The expansion was carried out in the same manner as Example 2, except that a plate immobilized with CH-296 prepared in Example 1-(2) was used.
The ratio of the γδ T cells was analyzed according to flow cytometry for PBMCs prepared in Example 1-(1) and the cells on the fourteenth day from the initiation of culture prepared in Example 3-(1), in the same manner as in Example 1-(4). As a result, the ratio of γδ T cells was 8.9% for the PBMCs, and the ratio was from 96.0 to 96.9% for the cells on the fourteenth day from the initiation of culture.
(§1) The number of live cells was counted according to trypan blue staining method for the cells on the fourteenth day from the initiation of culture prepared in Example 3-(1). The expansion fold of γδ T cells was calculated in comparison of the counted number with the number of γδ T cells at the initiation of culture, in the same manner as in Example 1-(5).

γδ T cells [2] = assay: Expansion of γδ T cell population using pamidronate in Yssel's medium (Example 4); conditions: human PBMCs, stimulant pamidronate 5 μM, IL-2 100 U/mL, immobilized FN fragment, day 14
Procedure: The expansion of a γδ T cell population was carried out in the same manner as in Example 2-(1), provided that as a basal medium for culture, a medium prepared originally by the applicant having the same composition as an Yssel's medium (hereinafter referred to as “Yssel's medium”) was used in place of IMDM, and that on the fifth day from the initiation of culture, 1 mL of an Yssel's medium containing 10% (v/v) human AB serum was added to each well, to dilute the cell suspension.
The ratio of γδ T cells was analyzed according to flow cytometry for PBMCs prepared in Example 1-(1) and the cells on the fourteenth day from the initiation of culture prepared in Example 4-(1), in the same manner as in Example 1-(4). As a result, the ratio of the γδ T cells was 8.9% for the PBMCs, and the ratio was from 89.7 to 94.3% for the cells on the fourteenth day from the initiation of culture.
as §1, with “4-(1).” for “3-(1).”

γδ T cells [3] = assay: Expansion of γδ T cell population using zoledronate (Example 5); conditions: human PBMCs; RPMI 1640, then 10HRPMI+L-Gln; stimulant zoledronate 1 μM for 48 hours; IL-2 100 U/mL; immobilized FN fragment; day 14
Procedure: The immobilization of an FN fragment was carried out in the same manner as in Example 1-(2), provided that a 6-well cell culture plate was used as a plate to be immobilized, and that an ACD-A solution (pH 5.0) containing H296-H296 (final concentration: 3 μg/mL) was added in a volume of 1.2 mL/well each.
PBMCs prepared in Example 1-(1) were suspended in an RPMI 1640 medium containing 0.25% (w/v) HSA so as to have a concentration of 1×10^6 cells/mL, to prepare a cell suspension. Thereafter, the above cells were added to a plate to which nothing was immobilized, or the plate immobilized with H296-H296 prepared in Example 5-(1), in a volume of 5 mL/well each. […]
The ratio of γδ T cell was analyzed according to flow cytometry for PBMCs prepared in Example 1-(1) and the cells on the fourteenth day from the initiation of culture prepared in Example 5-(2), in the same manner as in Example 1-(4). […]
as §1, with “5-(2).” for “3-(1).”

| Molecule | expansion fold of γδ T cells compared to control group (γδ T cells [1]) | Expansion Fold of γδ T Cells (Folds) Fourteenth Day of Culture (γδ T cells [2]) | Expansion Fold of γδ T Cells (Folds) Fourteenth Day of Culture (γδ T cells [3]) |
| --- | --- | --- | --- |
| CH-296: polypeptide comprising a cell binding domain, a heparin binding domain and a CS-1 domain of fibronectin (SEQ ID NO: 13) | high expansion fold of γδ T cells during the culture, as compared to that of the control group | ×101.4 Folds |  |
| H296-H296: modified fibronectin fragment in which two H-296's are connected to each other (SEQ ID NO: 22) (protein, Fibronectin fragment named H296-H296) AIPAPTDLKFTQVTPTSLSAQWTPPNVQLTGYRVRVTPKEKTGPMKEINLAPDSSSVVVSGLMVATKYEVSVYALKDTLTSRPAQGVVTTLENVSPPRRARVTDATETTITISWRTKTETITGFQVDAVPANGQTPIQRTIKPDVRSYTITGLQPGTDYKIYLYTLNDNARSSPVVIDASTAIDAPSNLRFLATTPNSLLVSWQPPRARITGYIIKYEKPGSPPREVVPRPRPGVTEATITGLEPGTEYTIYVIALKNNQKSEPLIGRKKTDELPQLVTLPHPNLHGPEILDVPSTAMAIPAPTDLKFTQVTPTSLSAQWTPPNVQLTGYRVRVTPKEKTGPMKEINLAPDSSSVVVSGLMVATKYEVSVYALKDTLTSRPAQGVVTTLENVSPPRRARVTDATETTITISWRTKTETITGFQVDAVPANGQTPIQRTIKPDVRSYTITGLQPGTDYKIYLYTLNDNARSSPVVIDASTAIDAPSNLRFLATTPNSLLVSWQPPRARITGYIIKYEKPGSPPREVVPRPRPGVTEATITGLEPGTEYTIYVIALKNNQKSEPLIGRKKTDELPQLVTLPHPNLHGPEILDVPST |  |  | ×107.5 Folds |
